Active and inactive are the calls of the source. The calls are words filed in the database; no cut-off is given here.

Drawing on ChEMBL document CHEMBL4052658, “BACE1 inhibitory activity and molecular docking analysis of meroterpenoids from Sargassum serratifolium” (Bioorg Med Chem, 2017), this text covers IC50, Ki and inhibition for four compounds.

One experiment concerns the target Acetylcholinesterase (Electrophorus electricus, UniProt O42275). In words: Inhibition of electric eel AChE using acetylthiocholine iodide as substrate incubated for 15 mins by spectrophotometric analysis.
For experiment [1], the target named is T1, Beta-secretase 1 (Homo sapiens, UniProt P56817). The experiment in a line: Noncompetitive inhibition of recombinant human BACE1 using Rh-EVNLDAEFK-Quencher as substrate after 60 mins by Dixon plot analysis.
T1 sequence (P56817 whole entry): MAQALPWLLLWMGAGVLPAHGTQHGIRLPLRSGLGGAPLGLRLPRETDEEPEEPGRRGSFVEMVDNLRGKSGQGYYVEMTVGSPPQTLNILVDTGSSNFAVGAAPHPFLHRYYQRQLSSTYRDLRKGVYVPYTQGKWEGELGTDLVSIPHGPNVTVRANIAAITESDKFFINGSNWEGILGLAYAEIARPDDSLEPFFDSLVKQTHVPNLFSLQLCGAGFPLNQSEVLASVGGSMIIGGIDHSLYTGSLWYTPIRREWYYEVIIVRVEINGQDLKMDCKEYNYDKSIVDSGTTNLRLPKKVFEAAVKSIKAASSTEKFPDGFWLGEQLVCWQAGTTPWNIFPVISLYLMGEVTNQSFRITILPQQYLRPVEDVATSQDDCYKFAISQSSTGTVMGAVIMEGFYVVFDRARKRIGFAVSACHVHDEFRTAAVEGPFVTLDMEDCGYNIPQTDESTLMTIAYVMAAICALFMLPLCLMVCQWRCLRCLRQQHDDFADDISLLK
Experiment [2] has as its target T1, Beta-secretase 1. The experiment in a line: Inhibition of recombinant human BACE1 using Rh-EVNLDAEFK-Quencher as substrate after 60 mins by FRET assay.
Experiment [3] deals with T1, Beta-secretase 1. The experiment in a line: Noncompetitive inhibition of recombinant human BACE1 using Rh-EVNLDAEFK-Quencher as substrate after 60 mins by Lineweaver-Burk plot analysis.
Another experiment concerns the target Cholinesterase (Equus caballus, UniProt P81908). The experiment in a line: Inhibition of equine serum BChE using butyrylthiocholine chloride as substrate incubated for 15 mins by spectrophotometric analysis.
In experiment [4] the target is T1, Beta-secretase 1. In words: Mixed type inhibition of recombinant human BACE1 using Rh-EVNLDAEFK-Quencher as substrate after 60 mins by Dixon plot analysis.

Sequence of Cholinesterase (P81908 whole entry): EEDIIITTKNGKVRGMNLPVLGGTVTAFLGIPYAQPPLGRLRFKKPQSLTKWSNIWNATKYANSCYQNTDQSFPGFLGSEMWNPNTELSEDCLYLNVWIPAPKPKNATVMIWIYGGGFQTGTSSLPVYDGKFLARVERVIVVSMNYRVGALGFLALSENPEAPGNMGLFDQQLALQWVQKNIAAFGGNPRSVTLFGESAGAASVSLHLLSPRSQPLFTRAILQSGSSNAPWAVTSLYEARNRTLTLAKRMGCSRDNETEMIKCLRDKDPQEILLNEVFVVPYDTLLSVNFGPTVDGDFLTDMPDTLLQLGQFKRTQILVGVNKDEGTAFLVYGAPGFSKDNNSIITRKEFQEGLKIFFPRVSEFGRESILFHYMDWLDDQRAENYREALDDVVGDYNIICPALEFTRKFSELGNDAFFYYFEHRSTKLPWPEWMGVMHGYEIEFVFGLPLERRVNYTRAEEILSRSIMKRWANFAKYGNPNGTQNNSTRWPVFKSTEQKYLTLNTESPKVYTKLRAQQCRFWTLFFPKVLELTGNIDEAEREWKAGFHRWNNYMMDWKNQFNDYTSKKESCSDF
Sequence of Acetylcholinesterase (O42275 whole entry): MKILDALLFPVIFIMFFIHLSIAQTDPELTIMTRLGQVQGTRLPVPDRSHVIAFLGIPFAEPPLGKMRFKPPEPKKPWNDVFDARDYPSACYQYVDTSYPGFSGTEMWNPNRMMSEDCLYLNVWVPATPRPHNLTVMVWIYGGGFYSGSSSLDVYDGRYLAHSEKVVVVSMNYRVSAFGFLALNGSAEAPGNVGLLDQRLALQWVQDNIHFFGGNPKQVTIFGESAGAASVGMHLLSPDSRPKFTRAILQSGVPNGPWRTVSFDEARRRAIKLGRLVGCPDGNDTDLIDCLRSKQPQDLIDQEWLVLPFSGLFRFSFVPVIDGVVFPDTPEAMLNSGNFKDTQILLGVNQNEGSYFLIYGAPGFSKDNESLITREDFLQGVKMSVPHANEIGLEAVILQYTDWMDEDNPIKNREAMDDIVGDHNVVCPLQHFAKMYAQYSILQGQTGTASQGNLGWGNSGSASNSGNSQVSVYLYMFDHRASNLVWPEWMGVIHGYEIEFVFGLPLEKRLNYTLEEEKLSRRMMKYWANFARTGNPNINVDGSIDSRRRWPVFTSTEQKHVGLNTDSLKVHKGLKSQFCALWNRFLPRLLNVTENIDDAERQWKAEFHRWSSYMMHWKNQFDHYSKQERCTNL

As for `CC(C)=CCC/C(=C/CC/C(C)=C/CCC1(C)C=Cc2cc(O)cc(C)c2O1)C(=O)O` (stereo not drawn), the half-inhibitory concentration (IC50) – broadly, the concentration that inhibits the measured activity by half – turned out to be 97.3 µM against Acetylcholinesterase, 7 µM on Beta-secretase 1 [2] and 9.4 µM against Cholinesterase. Also, on Beta-secretase 1 [1], the Ki – broadly, a dissociation constant, usually derived from enzyme kinetics or from competition with a known ligand – was found to be 2.9 µM. The inhibition entry at Beta-secretase 1 [3] was “Active”.

On Acetylcholinesterase, `COc1ccc2cc3[n+](cc2c1OC)CCc1cc2c(cc1-3)OCO2` [BERBERINE] had an IC50 of 1.6 µM.

On to `CC(C)=CCC/C(=C/CC/C(C)=C/CC/C(C)=C/CC1=CC(=O)C=C(C)C1=O)C(=O)O`, for which the results for the IC50 at Acetylcholinesterase and against Cholinesterase were 69.3 µM and 10.5 µM, respectively. In addition, the Ki on Beta-secretase 1 [4] is 4 µM.

In the case of `CC(C)=CCC/C(=C/CC/C(C)=C/CC/C(C)=C/Cc1cc(O)cc(C)c1O)C(=O)O` [SARGAHYDROQUINOIC ACID], the figures for the IC50 on Acetylcholinesterase, at Beta-secretase 1 [2] and at Cholinesterase were 124 µM, 4.4 µM and 15.2 µM, respectively. Besides, the Ki at Beta-secretase 1 [4] was 1.6 µM.
